What is called chromatographic logP is lipophilicity estimated from chromatographic retention. A higher chromatographic logP goes with higher lipophilicity.

The first data set is described as follows: logP determination by retention times (calibration with alkan-2-ones).
Settings: not given
With `Cc1nc(C2CC2)sc1-c1ccnc(Nc2cccc([N+](=O)[O-])c2)n1` [Example 225, 4-(2-cyclopropyl-4-methyl-1,3-thiazol-5-yl)-N-(3-nitrophenyl)pyrimidine-2-amine], the chromatographic logP turned out to be 3.29.

`COc1cc(Nc2nccc(-c3sc(C)nc3C)n2)cc(OC)c1` [Example 406, N-(3,5-dimethoxyphenyl)-4-(2,4-dimethyl-1,3-thiazol-5-yl)pyrimidine-2-amine] registered a chromatographic logP of 2.64.

Compound `COc1ccc(Nc2nccc(-c3sc(C4CC4)nc3C)n2)cn1` [Example 228, 4-(2-cyclopropyl-4-methyl-1,3-thiazol-5-yl)-N-(6-methoxypyridin-3-yl)pyrimidine-2-amine] gave a chromatographic logP of 2.53.

`COc1ccc(OC)c(Nc2nccc(-c3sc(C)nc3C)n2)c1` [Example 391, N-(2,5-dimethoxyphenyl)-4-(2,4-dimethyl-1,3-thiazol-5-yl)pyrimidine-2-amine] displayed a chromatographic logP of 3.03.

As to `Cc1nc(C2CC2)sc1-c1ccnc(Nc2ccccc2)n1` [Example 231, 4-(2-cyclopropyl-4-methyl-1,3-thiazol-5-yl)-N-phenylpyrimidine-2-amine], the chromatographic logP is 3.26.

Still in this data set, the particulars now being: logP, * HPLC reversed-phase C18, 40° C., mobile phase 0.1% aqueous formic acid and acetonitrile, linear gradient 10% to 95% acetonitrile.
With `COCc1nc(C)c(-c2ccnc(Nc3ccc(O)cc3)n2)s1` [Example 763, 4-({4-[2-(methoxymethyl)-4-methyl-1,3-thiazol-5-yl]pyrimidin-2-yl}amino)phenol], the chromatographic logP was found to be 1.8.

`Cc1nc(C(C)C)sc1-c1ccnc(Nc2ccc(Cl)cc2)n1` [Example 464, N-(4-chlorophenyl)-4-(2-isopropyl-4-methyl-1,3-thiazol-5-yl)pyrimidine-2-amine]: the chromatographic logP was found to be 4.25.

Consider `Cc1nc(C(F)(F)F)c(-c2ccnc(Nc3ccc(N(C)C)c(Cl)c3)n2)s1` [Example 700, 2-chloro-N1,N1-dimethyl-N4-{4-[2-methyl-4-(trifluoromethyl)-1,3-thiazol-5-yl]pyrimidin-2-yl}benzene-1,4-diamine], for which the chromatographic logP was found to be 2.88.

In the case of `COCCNc1nc(C)c(-c2ccnc(Nc3ccccc3)n2)s1` [Example 678, 4-{2-[(2-methoxyethyl)amino]-4-methyl-1,3-thiazol-5-yl}-N-phenylpyrimidine-2-amine], the chromatographic logP was 1.82.

On to `CCc1nc(C)c(-c2ccnc(Nc3ccc(C)c(C)c3)n2)s1` [Example 718, N-(3,4-dimethylphenyl)-4-(2-ethyl-4-methyl-1,3-thiazol-5-yl)pyrimidine-2-amine], for which the chromatographic logP worked out at 3.71.

As for `CCc1nc(C)c(-c2ccnc(Nc3ccc(OC)c(O)c3)n2)s1` [Example 791, 5-{[4-(2-ethyl-4-methyl-1,3-thiazol-5-yl)pyrimidin-2-yl]amino}-2-methoxyphenol], the chromatographic logP is 2.09.

Consider `Cc1nc(C2CC2)sc1-c1ccnc(Nc2cccc(Cl)c2)n1` [Example 422, N-(3-chlorophenyl)-4-(2-cyclopropyl-4-methyl-1,3-thiazol-5-yl)pyrimidine-2-amine], for which the chromatographic logP is 3.94.

On to `COCC(C)Nc1nc(C)c(-c2ccnc(Nc3cccc(NS(C)(=O)=O)c3)n2)s1` (stereo not drawn) [Example 570, N-{3-[(4-{2-[(2-methoxy-1-methylethyl)amino]-4-methyl-1,3-thiazol-5-yl}pyrimidin-2-yl)amino]phenyl}methanesulphonamide], for which the chromatographic logP turned out to be 1.57.

Turning to `CCc1nc(C)c(-c2ccnc(Nc3ccc(F)c(F)c3)n2)s1` [Example 755, N-(3,4-difluorophenyl)-4-(2-ethyl-4-methyl-1,3-thiazol-5-yl)pyrimidine-2-amine], the chromatographic logP came out at 3.44.

Still in this data set, the particulars now being: logP, values marked *: HPLC on reversed-phase C 18, 40° C., mobile phase 0.1% aqueous formic acid and acetonitrile, linear gradient 10% to 95% acetonitrile.
In turn, `COCCCNc1nc(C)c(-c2ccnc(Nc3cccc(N4CCCC4=O)c3)n2)s1` [Example 861, 1-{3-[(4-{2-[(3-methoxypropyl)amino]-4-methyl-1,3-thiazol-5-yl}pyrimidin-2-yl)amino]phenyl}pyrrolidin-2-one] gave a chromatographic logP of 1.62.

(Values after patent US20090030024A1, “THIAZOLES AS FUNGICIDES” (priority 2005, published 2009).)
